In ChEMBL document CHEMBL5303573, “Mapping human microbiome drug metabolism by gut bacteria and their genes” (Nature, 2019):

Assays:
[1] = bacteroides fragilis, 12 h, 2 µM
Description: The drug is tested on Bacteroides fragilis strain: NCTC 9343 for biotransformation. The drug concentrations were measured before and after a 12-h incubation by liquid-chromatography-coupled mass spectrometry (LC–MS)

[2] = The drug is tested on Clostridium hathewayi strain: DSM13479 for biotransformation. The drug concentrations were measured before and after a 12-h incubation by liquid-chromatography-coupled mass spectrometry (LC–MS); conditions: hungatella hathewayi, 2 µM
[3] = The drug is tested on Ruminococcus lactaris strain: ATCC29176 for biotransformation. The drug concentrations were measured before and after a 12-h incubation by liquid-chromatography-coupled mass spectrometry (LC–MS); conditions: 2 µM
[4] = akkermansia muciniphila, 12 h, 2 µM
Description: The drug is tested on Akkermansia muciniphila strain: ATCC BAA-835 for biotransformation. The drug concentrations were measured before and after a 12-h incubation by liquid-chromatography-coupled mass spectrometry (LC–MS)

[5] = The drug is tested on Bacteroides sp. WH2 strain: WH2 for biotransformation. The drug concentrations were measured before and after a 12-h incubation by liquid-chromatography-coupled mass spectrometry (LC–MS); conditions: bacteroides sp. wh2, 12 h, 2 µM
[6] = The drug is tested on Odoribacter splanchnicus strain: fecal isolate for biotransformation. The drug concentrations were measured before and after a 12-h incubation by liquid-chromatography-coupled mass spectrometry (LC–MS); conditions: 2 µM
[7] = The drug is tested on Eubacterium ventriosum strain: ATCC27560 for biotransformation. The drug concentrations were measured before and after a 12-h incubation by liquid-chromatography-coupled mass spectrometry (LC–MS); format: ADME; set-up: dose 2 uM, timepoint 0 vs 12 hours; conditions: 2 µM
[8] = The drug is tested on Alistipes indistinctus strain: DSM22520 for biotransformation. The drug concentrations were measured before and after a 12-h incubation by liquid-chromatography-coupled mass spectrometry (LC–MS); conditions: 2 µM

Row | SMILES | Bacterial Biotransformation [1] | Bacterial Biotransformation [2] | Bacterial Biotransformation [3] | Bacterial Biotransformation [4] | Bacterial Biotransformation [5] | Bacterial Biotransformation [6] | Bacterial Biotransformation [7] | Bacterial Biotransformation [8]
1 | CCCC(=O)Nc1ccc(OCC(O)CNC(C)C)c(C(C)=O)c1 (centres undefined) [ACEBUTOLOL] | Compound NOT metabolized | Compound NOT metabolized | Compound NOT metabolized | Compound NOT metabolized | Compound NOT metabolized | Compound NOT metabolized | Compound NOT metabolized | 
2 | c1ccc([C@H]2CN3CCSC3=N2)cc1 [LEVAMISOLE] | Compound metabolized | Compound NOT metabolized | Compound NOT metabolized |  | Compound NOT metabolized | Compound metabolized | Compound NOT metabolized | 
3 | O=C(O)COCCN1CCN(C(c2ccccc2)c2ccc(Cl)cc2)CC1 (centres undefined) [CETIRIZINE] | Compound metabolized | Compound NOT metabolized | Compound NOT metabolized | Compound NOT metabolized | Compound NOT metabolized |  | Compound NOT metabolized | Compound metabolized
4 | COC(=O)[C@H](c1ccccc1Cl)N1CCc2sccc2C1.O=S(=O)(O)O [CLOPIDOGREL BISULFATE] | Compound metabolized |  | Compound NOT metabolized | Compound NOT metabolized | Compound NOT metabolized | Compound metabolized | Compound NOT metabolized | Compound NOT metabolized
5 | CCOC(=O)[C@H](CCc1ccccc1)N[C@H]1CCc2ccccc2N(CC(=O)O)C1=O [BENAZEPRIL] | Compound NOT metabolized |  | Compound NOT metabolized | Compound NOT metabolized | Compound metabolized | Compound metabolized | Compound NOT metabolized | Compound NOT metabolized
6 | CN1C[C@H](C(=O)N[C@]2(C)O[C@@]3(O)[C@@H]4CCCN4C(=O)[C@H](Cc4ccccc4)N3C2=O)C=C2c3cccc4[nH]cc(c34)C[C@H]21.CN1C[C@H](C(=O)N[C@]2(C)O[C@@]3(O)[C@@H]4CCCN4C(=O)[C@H](Cc4ccccc4)N3C2=O)C=C2c3cccc4[nH]cc(c34)C[C@H]21.O=C(O)C(O)C(O)C(=O)O [ERGOTAMINE TARTRATE] | Compound metabolized |  | Compound metabolized | Compound metabolized | Compound metabolized | Compound metabolized | Compound NOT metabolized | Compound NOT metabolized
7 | CN1CCN(CC/C=C2/c3ccccc3Sc3ccc(S(=O)(=O)N(C)C)cc32)CC1 [THIOTHIXENE] | Compound metabolized |  | Compound metabolized | Compound NOT metabolized | Compound NOT metabolized | Compound metabolized | Compound metabolized | Compound NOT metabolized
8 | CSc1ccc2c(c1)C(N1CCN(C)CC1)Cc1ccccc1S2.O=C(O)/C=C\C(=O)O (centres undefined) | Compound NOT metabolized |  | Compound NOT metabolized | Compound NOT metabolized | Compound NOT metabolized | Compound NOT metabolized | Compound NOT metabolized | Compound NOT metabolized
9 | CCc1oc2ccccc2c1C(=O)c1cc(Br)c(O)c(Br)c1 [BENZBROMARONE] | Compound NOT metabolized |  | Compound NOT metabolized | Compound NOT metabolized | Compound NOT metabolized | Compound NOT metabolized | Compound NOT metabolized | Compound NOT metabolized
10 | CCOc1ccc2nc(S(N)(=O)=O)sc2c1 [ETHOXZOLAMIDE] | Compound metabolized |  | Compound metabolized | Compound metabolized | Compound metabolized | Compound metabolized | Compound metabolized | Compound metabolized
11 | CC(C(=O)O)c1ccc2c(c1)Cc1cccnc1O2 (centres undefined) [PRANOPROFEN] | Compound metabolized |  | Compound NOT metabolized | Compound metabolized | Compound metabolized | Compound metabolized | Compound metabolized | Compound metabolized
12 | CN(C)CCC=C1c2ccccc2C=Cc2ccccc21 [CYCLOBENZAPRINE] | Compound NOT metabolized | Compound NOT metabolized | Compound NOT metabolized |  | Compound NOT metabolized | Compound NOT metabolized | Compound NOT metabolized | 
13 | Clc1cccc(Cl)c1N=C1NCCN1 [CLONIDINE] | Compound metabolized | Compound NOT metabolized | Compound NOT metabolized | Compound NOT metabolized | Compound NOT metabolized | Compound metabolized | Compound NOT metabolized | 
14 | CN1CCN(C2=Nc3cc(Cl)ccc3Nc3ccccc32)CC1 [CLOZAPINE] | Compound NOT metabolized | Compound NOT metabolized | Compound NOT metabolized | Compound NOT metabolized | Compound NOT metabolized | Compound NOT metabolized | Compound NOT metabolized | 
15 | CNCCC(Oc1ccc(C(F)(F)F)cc1)c1ccccc1 (centres undefined) [FLUOXETINE] | Compound metabolized |  | Compound metabolized | Compound metabolized | Compound metabolized | Compound metabolized | Compound metabolized | Compound metabolized
16 | COc1ccc2c(c1OC)C(=O)O[C@@H]2[C@H]1c2c(cc3c(c2OC)OCO3)CCN1C [NOSCAPINE] | Compound metabolized |  | Compound metabolized | Compound metabolized | Compound NOT metabolized | Compound metabolized | Compound metabolized | Compound metabolized
17 | CN/C(=N/CCSCc1nc[nH]c1C)NC#N [CIMETIDINE] | Compound NOT metabolized | Compound NOT metabolized | Compound NOT metabolized | Compound NOT metabolized | Compound NOT metabolized |  | Compound NOT metabolized | Compound NOT metabolized
18 | CC(C)(C#N)c1cc(Cn2cncn2)cc(C(C)(C)C#N)c1 [ANASTROZOLE] | Compound metabolized |  | Compound NOT metabolized | Compound metabolized | Compound NOT metabolized | Compound metabolized | Compound NOT metabolized | Compound NOT metabolized
